Values joined by “and” are separate entries in the source; they are usually repeats but may differ in a detail not shown here. Equal values may be shown once. Read-outs that look alike come from different tables or passages of the source.
Assays:
[1] = Toxicokinetics in single dose IV toxicology study in rats; type: in vivo
Protocol: The toxicokinetics of Compound (A) were evaluated in a single dose IV toxicology study in rats. […] Compound (A) was given as an IV infusion (ca. 3 min) at doses of 10, 25, and 30 mg/kg to 3 rats/gender/dose. Serial blood samples were obtained over a period of 24 h after dosing, and plasma concentrations of Compound (A) and Compound (B) were determined using an LC/MS/MS assay with a standard curve range of 2-500 ng/mL for both analytes. At a dose of 10, 25, and 30 mg/kg, the mean CMAX values of Compound (A) in male rats were 6422, 19066, and 24414 ng/mL, respectively; in female rats, the mean CMAX values were 8384, 20524, and 25054 ng/mL, respectively. […] For doses in a ratio of 1:2.5:3 proportion, the mean CMAX values of Compound (A) for males and females were in the ratio of 1:3.0:3.8 and 1:2.5:3.0, respectively, and the AUC values were in the ratio of 1:3.1:4.9 and 1:3.5:4.2, respectively. T-HALF, mean residence time over the time interval zero to infinity MRT(INF), total body clearance (CLT), and VSS were not determined due to the limited sampling used in the study.

[2] = Pharmacokinetics and absolute oral bioavailability of formulations in beagle dogs; type: in vivo, adult male beagle dogs; conditions: for AUC(0-t) / Cmax / Tmax: male, beagle, dog, plasma; for AUC(0-t): T = 24 h; for Cmax / Tmax / CMAX, mean / TMAX, median: n = 3; for Tmax: read-out: TMAX, median
Protocol: The absolute oral bioavailability of various formulations of Compound (A) in adult male beagle dogs (n=4) was evaluated. Compound (A) was given as a 10 min intravenous (IV) infusion (0.5 mg/kg), a buffered oral solution (2 mg/kg), and a buffered oral suspension (1 mg/kg).
The design was a single-dose, four-treatment, four-period, non-randomized, crossover design. Compound (A) was given to four adult male beagle dogs as a 10 min IV infusion (0.5 mg/kg), a buffered oral solution (2 mg/kg), or a buffered oral suspension (2 mg/kg). […] Upon reconstitution, the pH of the buffered suspension was about 8.0 and the strength was approximately 0.75 mg/mL. Due to cumulative toxicity the dose for the oral suspension scheduled during the third treatment period was reduced from 2 mg/kg to 1 mg/kg. Furthermore, the fourth treatment was not administered for lack of an evaluable formulation. The wash-out period between treatments was at least 7 days. Serial blood samples were collected over 24 h after dose administration and concentrations of Compound (A) and Compound (B) were determined using a LC/MS/MS assay with a standard curve range of 2-500 ng/mL for both analytes. The LC/MS/MS assay was the same as used in Example 1.
Analytical runs consisted of standard, quality control (QC), and study samples. The plasma volume used for analysis was 0.2 mL and the standard curve range was 2 to 500 ng/mL for both analytes, defining the lower limit of quantitation (LLQ) and upper-limit of quantitation (ULQ), respectively. If the predicted concentration of a study sample was less than that of the lowest standard, the value of the predicted concentration was reported as <LLQ. […]. If the predicted concentration was greater than that of the highest standard, the result of that analysis was reported as >ULQ and an appropriate volume of that sample was diluted with blank plasma and reanalyzed.
Four adult male dogs with venous access for drug administration and blood collection were selected for the study. The dogs were acclimated for at least one week prior to study initiation and were housed in individual steel cages. Animals were identified by a unique number and by a tag attached to the cage. The dogs were offered drinking water ad libitum, and fed once a day with standard canine diet except for an overnight (about 12 h) fast prior to dosing which was continued until 4 h after dosing. Fifteen (15) minutes prior to administration of the buffered oral suspension, the dogs were pretreated with pentagastrin (6 :g/kg; intramuscularly). Pentagastrmn pretreatment was used only for the oral suspension leg. The IV dose was administered as a constant-rate infusion over a period of 10 min using a calibrated infusion pump. The oral solution and suspension doses were administered by gavage and the gavage tubes were rinsed with 20 mL of water.
Serial blood samples (3 mL) were collected at predose, and 10 min (IV only; end-of-infusion), 15 min, 20 min (IV only), 30 min, and 45 min, and 1 h, 1.5 h, 2 h, 4 h, 6 h, 8 h, 12 h, and 24 h after dosing. Blood samples were collected into Vacutainer® tubes containing K3-EDTA as the anticoagulant and the contents of each tube were mixed by gently inverting the tube. The blood samples were then placed immediately on chipped ice. Plasma was obtained within 30 min of collection by centrifuging the tubes at approximately 4° C. and 2000×g for 5 min. Plasma samples were stored at or below −20° C. until analyzed for the concentrations Compound (A) and Compound (B).
The peak plasma concentration (CMAX) and the time to reach peak concentration (TMAX) were recorded directly from experimental observations. The area under the plasma concentration-time curve from time zero to T (AUC(0−T)), where T is the time of the last measurable plasma concentration, was calculated using the trapezoidal rule (See, M. Gibaldi, et al., Pharmacokinetics, 2nd ed., New York, N.Y., Marcel Decker, p. 445-91982). […]

[3] = Kinetics in single dose IV toxicology study in dogs; type: in vivo; conditions: for AUC / Cmax: both sexes, dog, plasma; for Cmax: read-out: mean CMAX of Compound (B) in plasma; for mean CMAX in plasma: combined across gender
Protocol: The kinetics of Compound (A) were also evaluated as part of a single dose IV toxicology study. Compound (A) was given as an IV infusion (ca. 15 min) at doses of 0.5 and 5 mg/kg to 2 dogs/gender/dose. […] Blood samples were obtained over a period of 48 h after dosing, and plasma concentrations of Compound (A) and Compound (B) were determined using the LC/MS/MS assay with a standard curve range of 2-500 ng/mL for both analytes. […] T-HALF, MRT(INF), CLT, and VSS were not determined due to the limited sampling used in the study.

[4] = dogs, IV Compound (A) 0.5 mg/kg
[5] = dogs, buffered oral solution of Compound (A) 2 mg/kg
[6] = IV infusion of Compound (A) 0.5 mg/kg
[7] = IV infusion of Compound (A) 5 mg/kg
[8] = female rats, IV infusion 10 mg/kg
[9] = female rats, IV infusion 25 mg/kg
[10] = female rats, IV infusion 30 mg/kg
[11] = male rats, IV infusion 10 mg/kg
[12] = male rats, IV infusion 25 mg/kg
[13] = male rats, IV infusion 30 mg/kg
[14] = two dogs with both IV and oral solution data

## CC1=NC(/C=C/[C@@H]2C[C@@H](O)[C@](C)(O)CCC[C@H](C)[C@H](O)[C@@H](C)C(=O)C(C)(C)[C@@H](O)CC(=O)N2)CS1 (some centres unmarked) [Compound (B)]
[1]; both sexes, rat, plasma, rats, IV Compound (A) 10-30 mg/kg, read-out: AUC of Compound (B) across gender and dose groups
  AUC: 222 to 2000 ng·h/mL
[1]; both sexes, rat, plasma, rats, IV Compound (A) 10-30 mg/kg, read-out: CMAX of Compound (B) across gender and dose groups
  Cmax: 499 to 1790 ng/mL
[2]; dogs, IV Compound (A) 0.5 mg/kg, 0.17 h
  mean plasma concentration: 0 ng/mL
[2]; dogs, IV Compound (A) 0.5 mg/kg, 0.75 h
  mean plasma concentration: 0 ng/mL
[2]; dogs, IV Compound (A) 0.5 mg/kg, 1 h
  mean plasma concentration: 0 ng/mL
[2]; dogs, IV Compound (A) 0.5 mg/kg, 1.5 h
  mean plasma concentration: 0 ng/mL
[2]; dogs, IV Compound (A) 0.5 mg/kg, 2 h
  mean plasma concentration: 0 ng/mL
[2]; dogs, IV Compound (A) 0.5 mg/kg, 4 h
  mean plasma concentration: 0 ng/mL
[2]; dogs, IV Compound (A) 0.5 mg/kg, 6 h
  mean plasma concentration: 0 ng/mL
[2]; dogs, IV Compound (A) 0.5 mg/kg, 8 h
  mean plasma concentration: 0 ng/mL
[2]; dogs, IV Compound (A) 0.5 mg/kg, 12 h
  mean plasma concentration: 0 ng/mL
[2]; dogs, IV Compound (A) 0.5 mg/kg, 24 h
  mean plasma concentration: 0 ng/mL
[2]; dogs, buffered oral solution of Compound (A) 2 mg/kg, 0.25 h
  mean plasma concentration: 4.1 ng/mL
[2]; dogs, buffered oral solution of Compound (A) 2 mg/kg, 0.5 h
  mean plasma concentration: 21.3 ng/mL
[2]; dogs, buffered oral solution of Compound (A) 2 mg/kg, 0.75 h
  mean plasma concentration: 27.2 ng/mL
[2]; dogs, buffered oral solution of Compound (A) 2 mg/kg, 1 h
  mean plasma concentration: 23.8 ng/mL
[2]; dogs, buffered oral solution of Compound (A) 2 mg/kg, 2 h
  mean plasma concentration: 8.4 ng/mL
[2]; dogs, buffered oral solution of Compound (A) 2 mg/kg, 4 h
  mean plasma concentration: 2.4 ng/mL
[2]; dogs, buffered oral solution of Compound (A) 2 mg/kg, 6 h
  mean plasma concentration: 0.8 ng/mL
[2]; dogs, buffered oral solution of Compound (A) 2 mg/kg, 8 h
  mean plasma concentration: 0 ng/mL
[2]; dogs, buffered oral solution of Compound (A) 2 mg/kg, 12 h
  mean plasma concentration: 0 ng/mL
[2]; dogs, buffered oral solution of Compound (A) 2 mg/kg, 24 h
  mean plasma concentration: 0 ng/mL
[2]; [4]
  AUC(0-t): 0.69 ng·h/mL
  Cmax: 3.8 ng/mL
  Tmax: 10.2 min
[2]; [5]
  AUC(0-t): 45.2 ng·h/mL
  Cmax: 27.2 ng/mL
  Tmax: 45 min
[3]; [6]
  AUC: 55 ng·h/mL
  Cmax: 95.6 ng/mL
[3]; [7]
  AUC: 1110 ng·h/mL
  Cmax: 984 ng/mL

## C/C(=C\c1csc(C)n1)[C@@H]1C[C@@H]2O[C@]2(C)CCC[C@H](C)[C@H](O)[C@@H](C)C(=O)C(C)(C)[C@@H](O)CC(=O)N1 (relative stereo) [Compound (A), [1S-[1R*,3R*(E),7R*,10S*,11R*,12R*,16S*]]-7,11-dihydroxy 8,8,10,12,16-pentamethyl-3-[1-methyl-2-(2-methyl-4-thiazolyl)ethenyl-4-aza-17-oxobicyclo[14.1.0]heptadecane-5,9-dione]
[1]; [8]
  mean CMAX: 8384 ng/mL
  mean area under the concentration vs. time curve (AUC): 8156 ng·h/mL
[1]; [9]
  mean CMAX: 20524 ng/mL
  mean area under the concentration vs. time curve (AUC): 28476 ng·h/mL
[1]; [10]
  mean CMAX: 25054 ng/mL
  mean area under the concentration vs. time curve (AUC): 34563 ng·h/mL
[1]; [11]
  mean CMAX: 6422 ng/mL
  mean area under the concentration vs. time curve (AUC): 3864 ng·h/mL
[1]; [12]
  mean CMAX: 19066 ng/mL
  mean area under the concentration vs. time curve (AUC): 11980 ng·h/mL
[1]; [13]
  mean CMAX: 24414 ng/mL
  mean area under the concentration vs. time curve (AUC): 19269 ng·h/mL
[2]; [4]
  CMAX, mean: 1120 (189) ng/mL
  TMAX, median: 10.2 min
[2]; [5]
  AUC(0−T), mean (SD): 560 (159) h.ng./mL
  CMAX, mean: 365 (40.9) ng/mL
  TMAX, median: 30 min
[2]; dogs, oral solution 1.3 mL/kg vs 0.4 mL/kg
  mean AUC after oral solution higher than dose-normalized mean AUC of oral toxicity study: approximately 2 fold
[2]; [14]
  absolute oral bioavailability, individual dogs: 48.3% and 30.6%
  absolute oral bioavailability, mean value: 39.5%
[3]; [6]
  mean AUC in plasma: 316 ng·h/mL
  mean CMAX in plasma: 218 ng/mL
[3]; [7]
  mean AUC in plasma: 6925 ng·h/mL
  mean CMAX in plasma: 5118 ng/mL
